The results in this text go back to US20130197059A1, “INTEGRIN ANTAGONIST CONJUGATES FOR TARGETED DELIVERY TO CELLS EXPRESSING LFA-1” (Hoffmann-La Roche Inc., priority 2012, published 2013).

One series deals with T1, sLFA-1/ICAM-1 (Homo sapiens, UniProt P05107+P20701).
T1 construct: 2.0 ug/ml solution of sLFA-1 or Mac-1 receptor
The experiment in a line: sLFA-1/ICAM-1 ELISA (LFA1 Adhesion Assay). It counts as binding. As for the experimental part:
The following assay was conducted to assess effect of targeted molecules on the sLFA-1/ICAM-1 ELISA and Mac-1/ICAM-1 interactions.
Plates were coated with either 50 μl/well of 2.0 ug/ml solution of sLFA-1 or Mac-1 receptor in divalent cation buffer (1 mM MnCI2, 0.14M NaCl, 20 mM HEPES pH 7.2) at 4° C. overnight. Two hundred fifty μl of blocking buffer (1% BSA in divalent cation buffer) was added to each well 1 hour at 37° C. Plates were washed 3 times with wash buffer (TBS/0.05% Tween-20/1 mM MnCl2). The compound to be tested was solubilized in DMSO. […] Fifty μl of binding buffer (0.5% BSA in divalent cation buffer)/1% DMSO and 50 μl of the solutions to be tested were added to the appropriate wells and incubated for 1 hour. Fifty μl of 5dICAM-Fc (27 ng/ml) was added to the appropriate wells and 50 μl binding buffer was added to non-specific binding wells and incubated for 2 hours and washed. One hundred μl of 1:4000 HRP-goat anti-huIgG was added to each well and incubated for 1 hour and washed. One hundred μl of 1:1 TMB solution was added to each well and developed for 20 min at room temperature. Color development was stopped by adding 100 μl H3PO4 to each well. Absorbance was measured at 450 nm.
(In general: In an ELISA, binding on a coated surface is turned into a signal by an enzyme label.)

Another series deals with Jurkat Cells/VCAM-1. The experiment in a line: Jurkat Cells/VCAM-1 Adhesion Assay. Particulars: Table 4. It counts as cell-based.
Another series concerns AHA1 mRNA. The experiment in a line: Knock-down of AHA1 mRNA by 5′-sense strand modified siRNA (Branched DNA Assay). Particulars: H1299 cells, siRNA 50 nM, DharmaFect-1 reverse transfection, 48 hours. It counts as cell-based. The method, then: Assay of 5′-Sense Strand Modified siRNA for Knock-Down of AHA1 mRNA in Cellular Systems
Reference gene: GAPDH Cell line: H1299_Nut-One Plating density: 5,000 cells/well Plating format: 96-well Time from plating to treatment: 0 Control treatment: mock, untreated, control siRNA Transfection reagent: DharmaFectl
TF Reagent volume/well […] siRNA final concentration 50 nM Assay method: Day 1 manual/Day 2 Washer
Reverse transfection: H1299 cells were transfected with indicated siRNA at final concentration of 50 nM using DharmaFect-1 transfection reagent at 0.15 μl/well. Cells were then plated into 96-well plate at 5000 cells/well and incubated at 37° C. for 48 hours.
The efficacy of siRNA knock-down was measured with a Branched DNA Assay as reported by the vendor; the results of such knockdown are shown in FIG. 5. The relative cell viability was assessed by the absolute expression of GAPDH in the same well (FIG. 6).

Where [1] appears, read: Table 4, read-out: LFA1 Adhesion Assay.
Setting [2] is: control compounds, read-out: IC50.

Like-named read-outs stand apart in the source and are kept apart here.

T1 sequence (P20701 26-1090 limits assumed): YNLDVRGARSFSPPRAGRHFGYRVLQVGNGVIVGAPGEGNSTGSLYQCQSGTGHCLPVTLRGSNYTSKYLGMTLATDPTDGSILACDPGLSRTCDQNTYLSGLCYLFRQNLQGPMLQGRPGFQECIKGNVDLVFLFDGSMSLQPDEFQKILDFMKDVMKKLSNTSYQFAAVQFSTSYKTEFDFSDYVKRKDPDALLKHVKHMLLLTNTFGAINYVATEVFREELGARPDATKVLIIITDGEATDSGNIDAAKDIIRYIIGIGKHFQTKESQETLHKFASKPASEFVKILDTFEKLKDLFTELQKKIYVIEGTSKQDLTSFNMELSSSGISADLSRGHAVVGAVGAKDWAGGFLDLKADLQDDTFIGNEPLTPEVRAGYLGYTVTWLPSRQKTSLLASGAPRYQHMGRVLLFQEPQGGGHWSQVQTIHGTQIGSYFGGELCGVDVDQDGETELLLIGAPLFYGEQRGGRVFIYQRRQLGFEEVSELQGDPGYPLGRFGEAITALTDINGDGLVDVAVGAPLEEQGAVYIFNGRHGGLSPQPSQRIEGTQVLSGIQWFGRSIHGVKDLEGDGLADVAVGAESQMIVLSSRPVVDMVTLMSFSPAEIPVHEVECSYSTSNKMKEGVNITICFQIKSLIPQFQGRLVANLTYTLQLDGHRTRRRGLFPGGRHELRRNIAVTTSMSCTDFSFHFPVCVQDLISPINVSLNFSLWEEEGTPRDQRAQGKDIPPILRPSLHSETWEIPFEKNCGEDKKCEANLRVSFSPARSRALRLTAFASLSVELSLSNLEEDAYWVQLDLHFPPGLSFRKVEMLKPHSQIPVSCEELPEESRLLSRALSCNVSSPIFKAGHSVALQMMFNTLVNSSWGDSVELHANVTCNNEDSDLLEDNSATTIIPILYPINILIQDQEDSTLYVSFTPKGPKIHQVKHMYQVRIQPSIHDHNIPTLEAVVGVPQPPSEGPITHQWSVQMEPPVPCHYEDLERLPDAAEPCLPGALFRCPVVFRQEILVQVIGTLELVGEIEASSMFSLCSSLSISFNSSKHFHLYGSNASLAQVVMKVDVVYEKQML
T1 sequence (P05107 23-700 limits assumed): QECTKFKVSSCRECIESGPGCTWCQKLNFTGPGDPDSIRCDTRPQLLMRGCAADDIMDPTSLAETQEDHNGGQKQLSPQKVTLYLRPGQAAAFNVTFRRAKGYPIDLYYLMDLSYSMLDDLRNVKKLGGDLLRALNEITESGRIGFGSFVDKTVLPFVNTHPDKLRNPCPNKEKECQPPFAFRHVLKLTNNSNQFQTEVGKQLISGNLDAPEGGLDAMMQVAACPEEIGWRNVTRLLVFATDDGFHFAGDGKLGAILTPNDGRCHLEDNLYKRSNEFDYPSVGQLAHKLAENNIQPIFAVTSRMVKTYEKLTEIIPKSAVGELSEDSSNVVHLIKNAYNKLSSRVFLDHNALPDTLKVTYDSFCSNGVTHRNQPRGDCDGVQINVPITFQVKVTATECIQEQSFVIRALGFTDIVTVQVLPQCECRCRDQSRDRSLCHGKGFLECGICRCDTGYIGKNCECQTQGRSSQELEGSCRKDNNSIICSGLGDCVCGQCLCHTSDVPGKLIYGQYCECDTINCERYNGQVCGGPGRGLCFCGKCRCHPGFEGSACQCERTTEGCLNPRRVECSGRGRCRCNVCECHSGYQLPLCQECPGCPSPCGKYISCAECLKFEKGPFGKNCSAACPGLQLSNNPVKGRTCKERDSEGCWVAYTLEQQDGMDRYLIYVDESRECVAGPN

As to `Cc1cc(C(=O)NCc2cccc(Cl)c2)cc(C)c1C(=O)N[C@@H](CNC(=O)c1cccs1)C(=O)O` [compound 142], the IC50 on sLFA-1/ICAM-1 (setting [1]) was 37 nM; at sLFA-1/ICAM-1 (Table 5, read-out: LFA1 Adhesion Assay (IC50 nM)), 74 nM; at sLFA-1/ICAM-1 (setting [2]), around 37 nM.
Regarding `O=C(NCc1cccc(O)c1)c1cc(Cl)c(C(=O)N[C@@H](CNC(=O)c2cc(O)cc(O)c2)C(=O)O)c(Cl)c1` [compound 143], the IC50 at sLFA-1/ICAM-1 (setting [1]) was 11 nM; at sLFA-1/ICAM-1 (setting [2]) it was around 11 nM.
Compound “Duplex-1: AHA1 siRNA duplex without targeting element: Sense-1 GGAuGAAGuGGAGAuuAGudTsdT, Antisense-1 ACuAAUCUCcACUUcAUCCdTsdT (sense GGAUGAAGUGGAGAUUAGUTT; antisense ACUAAUCUCCACUUCAUCCTT; lowercase nucleotides modified, meaning not given here, dTsdT 3' overhang)” returned an IC50 in the series with Jurkat Cells/VCAM-1 above 200 nM. Moreover, in the series on AHA1 mRNA, the “AHA1 % KD” value was 98%.
